# Source: patent US20090105305A1, “Therapeutic Agents - 550” (AstraZeneca AB, priority 2006, published 2009)
# Molecular target: T1, human Fatty Acid Synthase (Homo sapiens, UniProt P49327)
# T1 construct: made in house
# Assay: Human FAS enzyme assay (decrease in NADPH fluorescence)
# Type: biochemical
# Settings: % inhibition at a concentration of 100 micromolar
# How it was run: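 In-house human FAS (0.4 μg) was preincubated 15 min at RT with compound and NADPH (added at 166.6 μM) in 0.1 M Tris pH 7.5, 1 mM glutathione, 0.05% BSA. Malonyl-/acetyl-CoA (500/150 μM in substrate mix) was then added for 60 min. Readout was NADPH fluorescence loss (ex 340/em 460) over a time-zero read, with IC50 from a sigmoid fit.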
# T1 sequence (P49327 whole entry): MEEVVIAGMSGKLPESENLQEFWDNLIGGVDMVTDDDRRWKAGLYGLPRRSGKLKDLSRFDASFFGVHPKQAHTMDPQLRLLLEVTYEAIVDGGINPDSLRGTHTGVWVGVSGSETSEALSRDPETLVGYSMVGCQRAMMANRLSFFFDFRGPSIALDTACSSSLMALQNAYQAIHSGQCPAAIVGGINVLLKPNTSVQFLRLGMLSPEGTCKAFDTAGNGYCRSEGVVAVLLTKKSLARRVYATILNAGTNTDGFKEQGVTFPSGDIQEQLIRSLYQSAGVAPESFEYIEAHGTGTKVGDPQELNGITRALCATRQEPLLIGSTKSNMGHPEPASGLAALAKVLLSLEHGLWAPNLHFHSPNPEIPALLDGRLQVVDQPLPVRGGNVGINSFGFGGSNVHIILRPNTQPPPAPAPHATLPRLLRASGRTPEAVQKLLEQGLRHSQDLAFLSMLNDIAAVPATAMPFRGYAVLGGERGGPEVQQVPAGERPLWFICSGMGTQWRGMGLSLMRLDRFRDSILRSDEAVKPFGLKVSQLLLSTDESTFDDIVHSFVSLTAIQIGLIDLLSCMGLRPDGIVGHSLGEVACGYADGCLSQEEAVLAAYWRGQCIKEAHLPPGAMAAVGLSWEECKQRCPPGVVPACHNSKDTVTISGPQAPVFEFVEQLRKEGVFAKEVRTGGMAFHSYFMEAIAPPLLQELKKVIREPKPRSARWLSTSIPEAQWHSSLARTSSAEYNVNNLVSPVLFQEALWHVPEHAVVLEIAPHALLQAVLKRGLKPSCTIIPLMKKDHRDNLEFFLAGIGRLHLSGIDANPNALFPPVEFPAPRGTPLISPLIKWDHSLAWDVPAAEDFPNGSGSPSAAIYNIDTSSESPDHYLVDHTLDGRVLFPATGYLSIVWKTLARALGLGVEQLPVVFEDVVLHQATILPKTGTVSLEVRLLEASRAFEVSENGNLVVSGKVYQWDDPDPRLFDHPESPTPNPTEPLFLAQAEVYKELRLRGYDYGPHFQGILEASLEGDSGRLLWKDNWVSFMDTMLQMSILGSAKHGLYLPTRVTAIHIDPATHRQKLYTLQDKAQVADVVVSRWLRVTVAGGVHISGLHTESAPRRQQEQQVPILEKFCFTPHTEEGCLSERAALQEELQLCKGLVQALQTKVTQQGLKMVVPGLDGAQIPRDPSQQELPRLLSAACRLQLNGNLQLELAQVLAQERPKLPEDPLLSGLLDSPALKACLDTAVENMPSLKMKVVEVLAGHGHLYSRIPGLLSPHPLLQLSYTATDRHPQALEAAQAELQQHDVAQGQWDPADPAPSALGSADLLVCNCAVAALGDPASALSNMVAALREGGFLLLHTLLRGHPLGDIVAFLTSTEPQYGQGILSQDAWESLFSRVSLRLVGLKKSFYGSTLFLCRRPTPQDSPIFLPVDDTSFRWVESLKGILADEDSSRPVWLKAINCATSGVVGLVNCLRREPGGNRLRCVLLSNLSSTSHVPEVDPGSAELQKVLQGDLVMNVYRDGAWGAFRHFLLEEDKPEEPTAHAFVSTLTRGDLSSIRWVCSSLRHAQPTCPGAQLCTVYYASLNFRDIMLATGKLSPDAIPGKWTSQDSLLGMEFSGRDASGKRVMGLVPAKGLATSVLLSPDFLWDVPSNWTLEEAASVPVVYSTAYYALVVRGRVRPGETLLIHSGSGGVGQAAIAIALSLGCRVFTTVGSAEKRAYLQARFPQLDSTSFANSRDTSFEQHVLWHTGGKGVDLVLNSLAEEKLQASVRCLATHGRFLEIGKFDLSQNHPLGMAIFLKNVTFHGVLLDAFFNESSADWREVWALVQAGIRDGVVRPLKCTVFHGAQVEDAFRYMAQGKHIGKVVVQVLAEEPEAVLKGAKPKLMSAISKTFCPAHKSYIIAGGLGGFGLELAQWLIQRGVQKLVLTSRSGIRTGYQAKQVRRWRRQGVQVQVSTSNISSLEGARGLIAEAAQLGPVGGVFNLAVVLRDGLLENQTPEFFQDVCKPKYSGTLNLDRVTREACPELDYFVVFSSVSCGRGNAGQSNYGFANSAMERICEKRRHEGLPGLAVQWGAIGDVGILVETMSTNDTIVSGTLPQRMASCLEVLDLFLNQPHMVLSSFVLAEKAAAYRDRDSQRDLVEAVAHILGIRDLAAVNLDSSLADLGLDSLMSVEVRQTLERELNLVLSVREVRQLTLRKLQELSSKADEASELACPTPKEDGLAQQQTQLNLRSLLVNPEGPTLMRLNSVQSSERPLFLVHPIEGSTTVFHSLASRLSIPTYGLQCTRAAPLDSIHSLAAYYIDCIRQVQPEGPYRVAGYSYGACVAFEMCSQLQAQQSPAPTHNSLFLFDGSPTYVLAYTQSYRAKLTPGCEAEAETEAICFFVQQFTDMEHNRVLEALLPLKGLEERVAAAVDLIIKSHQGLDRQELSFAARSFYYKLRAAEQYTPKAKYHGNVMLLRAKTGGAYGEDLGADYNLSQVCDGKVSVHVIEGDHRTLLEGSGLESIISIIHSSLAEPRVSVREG
row,SMILES,inhibition at 100 µM
1,"Cc1cc(C2CCN(C(=O)c3ccc(C)c(NS(C)(=O)=O)c3)CC2)ccc1C#N [Example 217, N-[5-[4-(4-cyano-3-methylphenyl)piperidine-1-carbonyl]-2-methylphenyl]methane-sulfonamide]",60%
2,"Cc1ccc(C(=O)N2CCC(c3ccc(C#N)cc3)CC2)cc1NS(=O)(=O)C(C)(C)Cl [Example 224, 2-chloro-N-[5-[4-(4-cyanophenyl)piperidine-1-carbonyl]-2-methylphenyl]propane-2-sulfonamide]",108%
3,"COc1ccc(C(=O)N2CCC(c3ccc(C#N)cc3)CC2)cc1NS(=O)(=O)Cc1ccccc1 [Example 89, N-[5-[4-(4-cyanophenyl)piperidine-1-carbonyl]-2-methoxy-phenyl]-1-phenyl-methanesulfonamide]",78%
4,"Cc1nc(C)c(S(=O)(=O)Nc2cc(C(=O)N3CCC(c4ccc(C#N)cc4)CC3)ccc2C)s1 [Example 106, N-[5-[4-(4-cyanophenyl)piperidine-1-carbonyl]-2-methyl-phenyl]-2,4-dimethyl-1,3-thiazole-5-sulfonamide]",95%
5,"Cc1ccc(C(=O)N2CCC(O)(c3ccc(C#N)cc3)CC2)cc1NS(=O)(=O)Cc1ccccc1 [Example 70, N-[5-[4-(4-cyanophenyl)-4-hydroxy-piperidine-1-carbonyl]-2-methyl-phenyl]-1-phenyl-methanesulfonamide]",87%
6,"Cc1ccc(C(=O)N2CCC(c3ccc(C#N)cc3)CC2)cc1NS(=O)(=O)c1cn(C)cn1 [Example 94, N-[5-[4-(4-cyanophenyl)piperidine-1-carbonyl]-2-methyl-phenyl]-1-methyl-imidazole-4-sulfonamide]",86%
7,"CCCC(=O)NCc1ccc(C2CCN(C(=O)c3ccc(C)c(NS(C)(=O)=O)c3)CC2)cc1 [Example 235, N-[[4-[1-(3-methanesulfonamido-4-methylbenzoyl)piperidin-4-yl]phenyl]methyl]butanamide]",72.8%
8,"CCCS(=O)(=O)NCc1ccc(C2CCN(C(=O)c3ccc(C)c(NS(C)(=O)=O)c3)CC2)cc1 [Example 237, N-[[4-[1-(3-methanesulfonamido-4-methylbenzoyl)piperidin-4-yl]phenyl]methyl]propane-1-sulfonamide]",85.2%
9,"Cc1ccc(C(=O)N2CCC(c3ccc(S(N)(=O)=O)cc3)CC2)cc1NS(C)(=O)=O [Example 186, 4-[1-(3-methanesulfonamido-4-methylbenzoyl)piperidin-4-yl]benzenesulfonamide]",99%
10,"CC(=O)N1CCC(S(=O)(=O)Nc2cc(C(=O)N3CCC(c4ccc(C#N)cc4)CC3)ccc2C)C1 (stereo not drawn) [Example 153, 1-acetyl-N-[5-[4-(4-cyanophenyl)piperidine-1-carbonyl]-2-methyl-phenyl]pyrrolidine-3-sulfonamide]",97%
11,"COc1cc(C2CCN(C(=O)c3ccc(C)c(NS(C)(=O)=O)c3)CC2)ccc1C#N [Example 178, N-[5-[4-(4-cyano-3-methoxyphenyl)piperidine-1-carbonyl]-2-methylphenyl]methanesulfonamide]",81%
12,"Cc1ccc(C(=O)N2CCC(c3ccc(CNC(=O)CO)cc3)CC2)cc1NS(C)(=O)=O [Example 241, 2-hydroxy-N-[[4-[1-(3-methanesulfonamido-4-methylbenzoyl)piperidin-4-yl]phenyl]methyl]acetamide]",81.5%
13,"CCc1ccc(C(=O)N2CCC(c3ccc(C#N)cc3)CC2)cc1NS(=O)(=O)C1CCS(=O)(=O)C1 (stereo not drawn) [Example 124, N-[5-[4-(4-cyanophenyl)piperidine-1-carbonyl]-2-ethyl-phenyl]-1,1-dioxo-thiolane-3-sulfonamide]",82%
14,"CC(=O)N1CCC(S(=O)(=O)Nc2cc(C(=O)N3CCC(c4ccc(C#N)cc4)CC3)ccc2C)CC1 [Example 118, 1-acetyl-N-[5-[4-(4-cyanophenyl)piperidine-1-carbonyl]-2-methyl-phenyl]piperidine-4-sulfonamide]",85%
15,"CSc1ccc(C(=O)N2CCC(c3ccc(C#N)cc3)CC2)cc1NS(C)(=O)=O [Example 159, N-[5-[4-(4-cyanophenyl)piperidine-1-carbonyl]-2-methylsulfanylphenyl]methanesulfonamide]",80%
16,"CCn1ncc(S(=O)(=O)Nc2cc(C(=O)N3CCC(c4ccc(C#N)cc4)CC3)ccc2C)c1C [Example 142, N-[5-[4-(4-cyanophenyl)piperidine-1-carbonyl]-2-methyl-phenyl]-1-ethyl-5-methyl-pyrazole-4-sulfonamide]",98%
17,"COC(=O)CS(=O)(=O)Nc1ccc(C)c(C(=O)N2CCC(c3ccc(C#N)cc3)CC2)c1 [Example 38, methyl 2-[[3-[4-(4-cyanophenyl)piperidine-1-carbonyl]-4-methyl-phenyl]sulfamoyl]acetate]",83%
18,"Cc1cc(C)c(C(=O)N2CCC(c3ccc(C#N)cc3)CC2)cc1NS(=O)(=O)C1CC1 [Example 116, N-[5-[4-(4-cyanophenyl)piperidine-1-carbonyl]-2,4-dimethyl-phenyl]cyclopropanesulfonamide]",92%
19,"Cc1ccc(C(=O)N2CCC(c3ccc(C#N)cc3)CC2)cc1NS(=O)(=O)CC(C)C [Example 64, N-[5-[4-(4-cyanophenyl)piperidine-1-carbonyl]-2-methyl-phenyl]-2-methyl-propane-1-sulfonamide]",83%
20,"Cc1nc(-c2ccc(C3CCN(C(=O)c4ccc(C)c(NS(C)(=O)=O)c4)CC3)cc2)no1 [Example 167, N-[2-methyl-5-[4-[4-(5-methyl-1,2,4-oxadiazol-3-yl)phenyl]piperidine-1-carbonyl]phenyl]methanesulfonamide]",87%
21,"Cc1ccc(C(=O)N2CCC(O)(c3ccc(Br)cc3)CC2)cc1NS(C)(=O)=O [Example 200, N-[5-[4-(4-bromophenyl)-4-hydroxypiperidine-1-carbonyl]-2-methylphenyl]methane-sulfonamide]",48%
22,"CNC(=O)c1ccc(C2CCN(C(=O)c3ccc(C)c(NS(C)(=O)=O)c3)CC2)cc1 [Example 156, 4-[1-(3-methanesulfonamido-4-methyl-benzoyl)-4-piperidyl]-N-methyl-benzamide]",74%
23,"Cc1ccc(C(=O)N2CCC(c3ccc(C#N)cc3)CC2)cc1NS(=O)(=O)CCCCl [Example 9, 3-chloro-N-[5-[4-(4-cyanophenyl)piperidine-1-carbonyl]-2-methyl-phenyl]propane-1-sulfonamide]",95%
24,"CCC1(CS(=O)(=O)Nc2cc(C(=O)N3CCC(c4ccc(C#N)cc4)CC3)ccc2C)NC(=O)NC1=O (stereo not drawn) [Example 148, N-[5-[4-(4-cyanophenyl)piperidine-1-carbonyl]-2-methyl-phenyl]-1-(4-ethyl-2,5-dioxo-imidazolidin-4-yl)methanesulfonamide]",100%

# Same assay, conditions: compounds excluded from the claims by proviso
row,SMILES,IC50s in the range of about 0.001 μM to about 30 μM
1,COc1cccc(C2CCN(C(=O)c3ccc(C)c(NS(C)(=O)=O)c3)CC2)c1 [N-[5-[4-(3-methoxyphenyl)piperidine-1-carbonyl]-2-methylphenyl]methanesulfonamide],do not have IC50s in the range of about 0.001 μM to about 30 μM
2,Cc1ccc(C(=O)N2CCC(c3cccc(-c4ccccc4)c3)CC2)cc1NS(C)(=O)=O [N-[2-methyl-5-[4-(3-phenylphenyl)piperidine-1-carbonyl]phenyl]methanesulfonamide],do not have IC50s in the range of about 0.001 μM to about 30 μM
3,"Cc1ccc(C(=O)N2CCC(c3ccc(CC(=O)N(C)C)cc3)CC2)cc1NS(C)(=O)=O [2-[4-[1-(3-methanesulfonamido-4-methylbenzoyl)piperidin-4-yl]phenyl]-N,N-dimethylacetamide]",do not have IC50s in the range of about 0.001 μM to about 30 μM
4,Cc1ccc(C(=O)N2CCC(c3ccc(C#N)cc3)CC2)cc1NS(=O)(=O)C1CCN(C(=O)OCc2ccccc2)C1 (stereo not drawn) [Benzyl 3-[[5-[4-(4-cyanophenyl)piperidine-1-carbonyl]-2-methylphenyl]sulfamoyl]pyrrolidine-1-carboxylate],do not have IC50s in the range of about 0.001 μM to about 30 μM
5,CS(=O)(=O)Nc1cc(C(=O)N2CCC(c3ccc(C#N)cc3)CC2)ccc1OC(F)(F)F [N-[5-[4-(4-cyanophenyl)piperidine-1-carbonyl]-2-(trifluoromethoxy)phenyl]methanesulfonamide],do not have IC50s in the range of about 0.001 μM to about 30 μM
6,N#Cc1ccc(C2CCN(C(=O)c3ccc(OC(F)(F)F)c(NS(=O)(=O)Cc4ccccc4)c3)CC2)cc1 [N-[5-[4-(4-cyanophenyl)piperidine-1-carbonyl]-2-(trifluoromethoxy)phenyl]-1-phenylmethanesulfonamide],do not have IC50s in the range of about 0.001 μM to about 30 μM
7,"Cc1ccc(C(=O)N2CCC(c3cccc(-c4cncs4)c3)CC2)cc1NS(C)(=O)=O [N-[2-methyl-5-[4-[3-(1,3-thiazol-5-yl)phenyl]piperidine-1-carbonyl]phenyl]methanesulfonamide]",do not have IC50s in the range of about 0.001 μM to about 30 μM
8,Cc1ccc(C(=O)N2CCC(O)(c3ccc(Cl)cc3)CC2)cc1NS(C)(=O)=O [N-[5-[4-(4-chlorophenyl)-4-hydroxypiperidine-1-carbonyl]-2-methylphenyl]methanesulfonamide],do not have IC50s in the range of about 0.001 μM to about 30 μM

# Same assay, conditions: unit inferred
row,SMILES,IC50
1,"Cc1ccc(C(=O)N2CCC(c3ccc(C#CC(C)(C)O)cc3)CC2)cc1NS(C)(=O)=O [Example 252, N-[5-[4-[4-(3-hydroxy-3-methylbut-1-ynyl)phenyl]piperidine-1-carbonyl]-2-methylphenyl]methanesulfonamide]",3.33 µM
